Holding throughout (format): functional
Details in all cases: read-out: ED50 (the source's name)

In assay [1] the test system is KB. As to the kind of experiment: Cytotoxicity against human KB cells by MTT assay.
The subject of assay [2] is HT-29. As to the kind of experiment: Cytotoxicity against human HT29 cells by MTT assay. A general note: Tetrazolium dyes change colour on reduction, which living cells bring about.
Assay [3] has as its system P388. As to the kind of experiment: Cytotoxicity against mouse P388 cells by MTT assay.
The subject of assay [4] is A549. As to the kind of experiment: Cytotoxicity against human A549 cells by MTT assay.

Values after ≈ are worked out from the molar mass of the structure shown.

As for `C[C@H](CCC1OC1(C)C)[C@H]1CC[C@H]2[C@@H]3C[C@@H](O)C4=CC(=O)CC[C@]4(C)[C@H]3CC[C@]12C` (mixture of isomers), the EC50 in assay [1] amounted to 0.3 µg/mL; in assay [2] it was 0.87 µg/mL; in assay [3] it was 0.75 µg/mL; in assay [4], 3.14 µg/mL.
For `C[C@H](C/C=C/C(C)(C)O)[C@H]1CC[C@H]2[C@@H]3CC=C4C[C@@H](O)CC[C@]4(C)[C@H]3CC[C@]12C`, the EC50 in assay [1] is 0.61 µg/mL (≈ 1.52 µM); in assay [2], 0.6 µg/mL (≈ 1.5 µM); in assay [3], 0.15 µg/mL (≈ 0.374 µM); in assay [4] it was 1.08 µg/mL (≈ 2.7 µM).
For the compound `C=C(C)C(CC[C@@H](C)[C@H]1CC[C@H]2[C@@H]3CC=C4C[C@@H](O)CC[C@]4(C)[C@H]3CC[C@]12C)OO` (stereo partly specified), the EC50 in assay [1] was 0.33 µg/mL (≈ 0.792 µM); in assay [2], 0.43 µg/mL (≈ 1.03 µM); in assay [3], 0.26 µg/mL (≈ 0.624 µM); in assay [4], 0.64 µg/mL (≈ 1.54 µM).
Consider `CC(C)=CCC[C@@H](C)[C@H]1CC[C@H]2[C@@H]3CC=C4C[C@@H](O)CC[C@]4(C)[C@H]3CC[C@]12C` [DESMOSTEROL], for which the EC50 in assay [1] is > 50 µg/mL; in assay [2], > 50 µg/mL; in assay [3] it was 33.5 µg/mL (≈ 87.2 µM); in assay [4], > 50 µg/mL.
On to `C=C(C)C(O)CC[C@@H](C)[C@H]1CC[C@H]2[C@@H]3CC=C4C[C@@H](O)CC[C@]4(C)[C@H]3CC[C@]12C` (stereo partly specified), for which the EC50 in assay [1] was found to be 0.67 µg/mL (≈ 1.67 µM); in assay [2], 0.37 µg/mL (≈ 0.924 µM); in assay [3] it was 0.36 µg/mL (≈ 0.899 µM); in assay [4], 1.61 µg/mL (≈ 4.02 µM).
`C[C@H](C/C=C/C(C)(C)OO)[C@H]1CC[C@H]2[C@@H]3CC=C4C[C@@H](O)CC[C@]4(C)[C@H]3CC[C@]12C`: in assay [3], the EC50 stood at 0.22 µg/mL (≈ 0.528 µM).

(Values after ChEMBL document CHEMBL1151671, “Cytotoxic oxygenated desmosterols of the red alga Galaxaura marginata” (1996).)
